The record followed here is article PMC5733478, “A Non-imaging High Throughput Approach to Chemical Library Screening at the Unmodified Adenosine-A3 Receptor in Living Cells” (Frontiers in Pharmacology, 2017).

Structures can show the parent of a compound that is named as a salt.

The target of the first assay is T1, human A3AR (Homo sapiens, UniProt P0DMS8).
T1 construct: expressed in transfected cells
T1 sequence (P0DMS8 1-318): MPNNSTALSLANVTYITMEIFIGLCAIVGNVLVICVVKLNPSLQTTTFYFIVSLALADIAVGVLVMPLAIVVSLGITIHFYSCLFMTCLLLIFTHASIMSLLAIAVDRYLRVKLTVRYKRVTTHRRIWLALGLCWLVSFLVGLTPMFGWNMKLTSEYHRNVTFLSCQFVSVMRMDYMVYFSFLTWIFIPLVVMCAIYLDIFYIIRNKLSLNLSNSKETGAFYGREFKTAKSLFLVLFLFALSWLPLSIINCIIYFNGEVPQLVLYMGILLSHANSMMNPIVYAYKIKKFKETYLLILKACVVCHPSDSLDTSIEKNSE
In words: LOPAC library primary screen: single concentration (10 μM) inhibition of 25 nM CA200645 binding, PHERAstar FS.
Settings: not given
Turning to `c1ccc2cc(-c3ncc[nH]3)ccc2c1` [Benazoline oxalate], the “% 25 nM CA200645 binding” value amounted to 98.8 ± 14.3%.
Still for that read-out and setting: the figure for `Cl.Cn1c(CCCC(=O)O)nc2cc(N(CCCl)CCCl)ccc21` [Bendamustine hydrochloride] is 97.6 ± 4.1%.
Still for that read-out and setting: the figure for `COc1cccc(OC)c1OCCNCC1CSc2ccccc2O1` (stereo not shown) [Benoxathian hydrochloride] is 95.8 ± 4.4%; for `NC(CO)C(=O)NNCc1ccc(O)c(O)c1O` (stereo not shown) [Benserazide hydrochloride] it is 98.9 ± 5.3%; for `NC(=O)c1ccccc1` [Benzamide] it is 99.1 ± 4.7%.
On the same count and under the same terms, to `N=C(N)c1ccccc1` [Benzamidine hydrochloride] belongs 90.8 ± 8.3%; to `NC(=NCc1ccccc1)NC(=O)c1nc(Cl)c(N)nc1N` [Benzamil hydrochloride], 95.3 ± 5.6%.
With `CN1[C@@H]2CC[C@H]1C[C@@H](OC(c1ccccc1)c1ccccc1)C2` [Benztropine mesylate], the “% 25 nM CA200645 binding” value amounted to 96.0 ± 5.8%.
The same measure, in the same setting: the figure for `CC(C)COCC(CN(Cc1ccccc1)c1ccccc1)N1CCCC1` (stereo not shown) [Bepridil hydrochloride] is 101.8 ± 6.3%; for `C[N+](C)(C)CC=O` [Betaine aldehyde chloride] it is 95.0 ± 5.8%.
Take `C[N+](C)(C)CC(=O)O` [Betaine hydrochloride]: the “% 25 nM CA200645 binding” value amounted to 78.7 ± 15.6%.
Still for that read-out and setting: to `C[C@H]1C[C@H]2[C@@H]3CCC4=CC(=O)C=C[C@]4(C)[C@@]3(F)[C@@H](O)C[C@]2(C)[C@@]1(O)C(=O)CO` [Betamethasone] belongs 77.0 ± 7.6%; to `CC(C)NCC(O)COc1ccc(CCOCC2CC2)cc1` (stereo not shown) [Betaxolol hydrochloride], 98.4 ± 4.9%; to `CC(C)(Oc1ccc(CCNC(=O)c2ccc(Cl)cc2)cc1)C(=O)O` [Bezafibrate], 93.0 ± 7.9%.
Consider `CC(O)(CS(=O)(=O)c1ccc(F)cc1)C(=O)Nc1ccc(C#N)c(C(F)(F)F)c1` (stereo not shown) [Bicalutamide (CDX)], for which the “% 25 nM CA200645 binding” value is 96.9 ± 5.3%.
On the same count and under the same terms, to `OC(CCN1CCCCC1)(c1ccccc1)C1CC2C=CC1C2` (stereo not shown) [Biperiden hydrochloride] belongs 86.9 ± 6.4%.
The same measure, in the same setting: the figure for `CC(C)NCC(O)COc1ccc(COCCOC(C)C)cc1.CC(C)NCC(O)COc1ccc(COCCOC(C)C)cc1.O=C(O)/C=C/C(=O)O` (stereo not shown) [Bisoprolol hemifumarate salt] is 106.9 ± 6.1%; for `C=CCc1ccccc1OCC(O)CNC1(C)CCC(C(C)(C)NC(=O)CBr)CC1` (stereo not shown) [Bromoacetyl alprenolol menthane] it is 102.8 ± 4.8%; for `C[N+](C)(C)CCOC(=O)CBr.[Br-]` [Bromoacetylcholine bromide] it is 95.1 ± 8.8%.
With `CCCC1O[C@@H]2C[C@H]3[C@@H]4CCC5=CC(=O)C=C[C@]5(C)[C@H]4[C@@H](O)C[C@]3(C)[C@]2(C(=O)CO)O1` (stereo partly shown) [Budesonide], the “% 25 nM CA200645 binding” value came out at 92.7 ± 8.6%.
Same read-out and setting: the figure for `CC(NC(C)(C)C)C(=O)c1cccc(Cl)c1` (stereo not shown) [Bupropion hydrochloride] is 98.9 ± 4.9%.
Still for that read-out and setting: the figure for `O=C1CC2(CCCC2)CC(=O)N1CCCCN1CCN(c2ncccn2)CC1` [Buspirone hydrochloride] is 102.9 ± 6.0%.
For `Clc1nccc2c1ccc1ccccc12` [CBIQ], the “% 25 nM CA200645 binding” value is 87.1 ± 7.0%.
Still for that read-out and setting: to `CS(=O)(=O)O.Cn1cc(C(F)(F)F)nc1-c1ccc(OCC(O)CNCCOc2ccc(O)c(C(N)=O)c2)cc1` (stereo not shown) [CGP 20712A methanesulfonate] belongs 106.4 ± 13.7%; to `Nc1ncnc2n[nH]c(Nc3ccc(F)cc3)c12` [CGP 57380], 81.2 ± 23.0%; to `CC(C)(CO)Cc1cc(C(C)(C)C)c(O)c(C(C)(C)C)c1` [CGP-7930], 87.6 ± 4.9%.
Take `CC(C)(C=O)Cc1cc(C(C)(C)C)c(O)c(C(C)(C)C)c1` [CGP-13501]: the “% 25 nM CA200645 binding” value turned out to be 97.4 ± 7.1%.
Still for that read-out and setting: the figure for `CCn1cnc2c(Nc3cccc(Cl)c3)nc(N[C@@H]3CCCC[C@@H]3N)nc21.Cl` [CGP-74514A hydrochloride] is 94.1 ± 9.9%.
As to `CCNC(=O)[C@H]1O[C@@H](n2cnc3c(N)nc(NCCc4ccc(CCC(=O)O)cc4)nc32)[C@H](O)[C@@H]1O` [CGS 21680, reference compound], the “hit in LOPAC primary screen (inhibited the binding of CA200645 by >40%)” value is recorded as “not identified as hits”.
For `CN1CCN(c2nc3cc(C(F)(F)F)ccc3n3cccc23)CC1.O=C(O)/C=C\C(=O)O` [CGS-12066A maleate], the “% 25 nM CA200645 binding” value stood at 97.3 ± 10.3%.
The same measure, in the same setting: the figure for `Nc1nc2ccc(Cl)cc2c2nc(-c3ccco3)nn12` [CGS-15943] is 30.0 ± 3.0%.
With `O=c1cc(-c2ccccc2F)[nH]c2cc3c(cc12)OCO3` [CHM-1 hydrate], the “% 25 nM CA200645 binding” value turned out to be 97.3 ± 5.3%.
Same read-out and setting: to `CCCCCCCCCCC(C)(C)C(=O)Nc1c(OC)cc(OC)cc1OC` [CI-976] belongs 89.4 ± 17.7%.
The same measure, in the same setting: the figure for `C[C@H](Cc1ccc2c(c1)OC(C(=O)[O-])(C(=O)[O-])O2)NC[C@H](O)c1cccc(Cl)c1.[Na+].[Na+]` [CL 316,243] is 38.7 ± 18.1%; for `N#Cc1cc2nc([O-])c([O-])nc2cc1[N+](=O)[O-].[Na+].[Na+]` [CNQX disodium] it is 94.7 ± 15.8%; for `CCc1cccc(N(C)C(N)=Nc2cccc3ccccc23)c1` [CNS-1102] it is 102.3 ± 11.4%.
The same measure, in the same setting: to `COc1ccc(/C=C/c2nc(NCCCN(C)C)c3ccccc3n2)cc1.Cl.Cl.O` [CP-31398 dihydrochloride hydrate] belongs 111.8 ± 1.4%; to `Nc1nc2ccc(Cl)cc2n2c(-c3ccccc3)nnc12` [CP-66713], 93.9 ± 10.2%.
Take `CN(C)C(=O)[C@H](O)[C@H](Cc1ccccc1)NC(=O)c1cc2cc(Cl)ccc2[nH]1` [CP-91149]: the “% 25 nM CA200645 binding” value is 87.6 ± 14.6%.
Still for that read-out and setting: the figure for `Cl.Cl.O=c1ccc2[nH]cc(C3=CCNCC3)c2[nH]1` [CP-93129 dihydrochloride hydrate] is 102.1 ± 6.9%; for `COc1ccccc1CN[C@@H]1CCCN[C@@H]1c1ccccc1.Cl.Cl.O` [CP-100263 dihydrochloride hydrate] it is 98.5 ± 6.9%; for `CC(C)(C)OC(=O)NC1[C@H]2CNC[C@@H]12` (stereo partly shown) [CP-101537] it is 102.3 ± 6.7%.
The same measure, in the same setting: the figure for `CN1CCC[C@@H]1Cc1c[nH]c2ccc(Nc3ncccc3[N+](=O)[O-])cc12` [CP-135807] is 96.1 ± 6.8%; for `CCCCN(CC)c1nc(C)nc2c1c(C)cn2-c1c(C)cc(C)cc1C.Cl` [CP-154526 hydrochloride] it is 77.3 ± 23.1%; for `Fc1ccc2[nH]c(CN3CCN(c4ccccn4)CC3)cc2c1` [CP-226269] it is 83.6 ± 17.8%.
The same measure, in the same setting: to `O.O.O=C(Nc1ccc2c(c1)CCN(Cc1ncn[nH]1)C2)c1ccccc1-c1ccc(C(F)(F)F)cc1` [CP-346086 dihydrate] belongs 98.2 ± 12.5%; to `COCCOc1cc2nc[nH]c(=O)c2cc1OCCOC` [CP-380736], 88.0 ± 4.4%.
In the case of `CC(C)(NS(=O)(=O)c1ccc(Oc2ccc(F)cc2)cc1)C(=O)NO` [CP-471474], the “% 25 nM CA200645 binding” value turned out to be 98.7 ± 17.5%.
Same read-out and setting: to `O=C(c1ccc(Cl)cc1)N1CCN(c2ccc([N+](=O)[O-])c3ncccc23)CC1` [CPNQ] belongs 83.4 ± 4.6%.
Still for that read-out and setting: to `Nc1nc(Nc2ccccc2)nc2c1ncn2[C@@H]1O[C@H](CO)[C@@H](O)[C@H]1O` [CV1808, 2-phenylaminoadenosine, reference compound] belongs 55.3 ± 19.9%.
The same measure, in the same setting: the figure for `O=C(c1ccc2c(c1)OCCO2)N1CCCCC1` [CX 546] is 95.5 ± 26.6%; for `O=C(/C=C/c1ccc(O)c(O)c1)OCCc1ccccc1` [Caffeic acid phenethyl ester] it is 79.3 ± 10.7%; for `CNc1ccc2oc(C[C@H]3O[C@@]4(CC[C@H]3C)O[C@H]([C@H](C)C(=O)c3ccc[nH]3)[C@H](C)C[C@H]4C)nc2c1C(=O)O` [Calcimycin] it is 38.9 ± 3.3%.

Staying with this assay, now noted: 10 μM compound, 25 nM CA200645, A3AR CHO cells.
As to `Cn1c(=O)c2nc(C3CCCC3)[nH]c2n(C)c1=O` [CPT, reference compound], the “hit in LOPAC primary screen (inhibited the binding of CA200645 by >40%)” value is “not identified as hits”.
Same read-out and setting: to `Cn1c(=O)c2c(nc(/C=C/c3cccc(Cl)c3)n2C)n(C)c1=O` [CSC, reference compound] belongs “not identified as hits”; to `Nc1nc(Nc2ccccc2)nc2c1ncn2[C@@H]1O[C@H](CO)[C@@H](O)[C@H]1O` [CV1808, 2-phenylaminoadenosine, reference compound], “identified”.

Staying with this assay, now noted: % of 25 nM CA200645 binding in the presence of 10 μM compound, LOPAC full screen, A3AR CHO cells.
On to `Nc1nc(Nc2ccccc2)nc2c1ncn2[C@@H]1O[C@H](CO)[C@@H](O)[C@H]1O` [CV1808, 2-phenylaminoadenosine, reference compound], for which the “% Total CA200645 binding” value is reported as 53.3 ± 19.9%.

Still in this assay, the particulars now being: % of control wells (1% DMSO and 25 nM CA200645); compounds at 10 µM; whole live cells expressing the A3AR; mean ± SD, three experiments in duplicate.
For the molecule `O=C(O)/C=C/c1ccc(O)c(O)c1` [Caffeic Acid], the “% 25 nM CA200645 binding” value was 100.0 ± 4.2%.

The assay is the same for the next values; noted with them: compounds tested at 10 µM; % of control wells (1% DMSO and 25 nM CA200645); […]; mean ± SD, three experiments in duplicate.
As to `CCCCNc1cc(C(=O)O)cc(S(N)(=O)=O)c1Oc1ccccc1` [Bumetanide], the “% 25 nM CA200645 binding” value turned out to be 94.3 ± 2.5%.

Still in this assay, the particulars now being: compounds tested at 10 µM; % of control wells (1% DMSO and 25 nM CA200645); whole live cells expressing the A3AR; mean ± SD, three experiments in duplicate.
As to `NC(=O)c1cc(N2CC2)c([N+](=O)[O-])cc1[N+](=O)[O-]` [CB 1954], the “% 25 nM CA200645 binding” value is given as 93.7 ± 2.8%.
Still for that read-out and setting: to `CC1(C)CCC(NC(=O)[C@@H](N)CCC(=O)O)CC1` [CR 2249] belongs 109.1 ± 19.6%.
